Where a SMILES comes first, the peptide text is derived from it.
Assay: Kinetics in blood after injection into the tail vein
Set-up: species or system C57BL/6j mouse
Conditions: female, C57BL/6j, mouse, in vivo, iv
Procedure: The kinetics in blood of the peptide of the formula (14) prepared in the Reference Example and the [^14 C]-labeled complex prepared in Example D-2 were studied.
To the vein of the tail of a C57BL/6j mouse (8 weeks old, female), 1,000 μg/0.2 cm^3 of the peptide or 100 μg/0.2 cm^3 of the labeled complex was injected. Upon expiration of a predetermined period of time, the carotid artery was cut for blood sampling. To quantitatively analyze the amount of the peptide in blood, to 1 cm^3 of the sampled blood, the same amount of 10% trifluoroacetic acid was added, followed by centrifugal separation at a speed of 10,000 rpm to precipitate the denatured protein, and the supernatant was recovered. […] To the obtained freeze-dried product, 0.2 cm^3 of distilled water was added, and the quantitative analysis was conducted by reversed phase (C18) chromatography. The quantitative analysis was conducted based on the quantitative curve obtained with a standard product (the peptide prepared in the Reference Example and quantitatively analyzed by an amino acid analysis).
To quantitatively analyze the [^14 C]-labeled complex, 2.5 cm^3 of a tissue solubilizer (NCA, Amersham Company) was added to 0.2 cm^3 of the sampled blood, followed by heating at 50° C. for two hours to solubilize the blood. […]

half-life: ~20 s
SMILES: C[C@H](N)C(=O)N[C@@H](CCC(=O)O)C(=O)N[C@@H](CC(=O)O)C(=O)NCC(=O)N[C@@H](CC(=O)O)C(=O)N[C@@H](C)C(=O)N[C@@H](CCCCN)C(=O)N[C@H](C(=O)N[C@@H](CC(=O)O)C(=O)N[C@@H](CCC(N)=O)C(=O)N[C@@H](C)C(=O)N[C@@H](CCC(=O)O)C(=O)N[C@@H](CCCCN)C(=O)N[C@@H](C)C(=O)N[C@@H](CCC(=O)O)C(=O)NCC(=O)N[C@@H](C)C(=O)NCC(=O)N[C@@H](CC(=O)O)C(=O)N[C@@H](C)C(=O)N[C@@H](CCCCN)C(=O)O)[C@@H](C)O [peptide of the formula (14), Ala-Glu-Asp-Gly-Asp-Ala-Lys-Thr-Asp-Glx-Ala-Glx-Lys-Ala-Glu-Gly-Ala-Gly-As p-Ala-Lys] (H-AEDGDAKTDQAEKAEGAGDAK-OH)

Source: patent publication US5548062A, “Tumor cell invasion-inhibiting peptides, peptide complexes and cancer metastasis inhibitors” (Asahi Glass Company Ltd., priority 1990, dated 1996)
